Data: US20120258967A1, “PI3 KINASE INHIBITORS AND USES THEREOF” (AVILA THERAPEUTICS, INC., priority 2011, published 2012)

These compounds were tested against T1, PI3Kα (p110α/p85α) (Homo sapiens, UniProt P42336) (assay: HTRF assay, potency against active PI3Kα). Conditions: [ATP]=50 μM, read-out: PI3Kα Inhibition.
T1 construct: purchased BPS Bioscience or Millipore
Assay type: biochemical
Experimental: Compounds of the present invention are assayed as inhibitors of PI3 kinases using the following general protocol.
Homogeneous Time Resolved Fluorescence (HTRF) Assay Protocol for Potency Assessment Against the Active Forms of PI3Kα, PI3Kβ, and PI3Kγ
The protocol below describes an end-point, competition-binding HTRF assay used to measure inherent potency of test compounds against active PI3Kα (p110α/p85α), PI3Kβ (p110β/p85α), and PI3Kγ (p120γ) enzymes. The mechanics of the assay platform are best described by the vendor (Millipore, Billerica, Mass.) on their website at the following URL: www.millipore.com/coa/tech1/74jt4z.
Briefly, Stop solution (Stop A, #33-007 and Stop B, #33-009; 3:1 ratio) and Detection Mix (from DMC, #33-015 with DMA, #33-011 and DMB, #33-013; 18:1:1 ratio) were prepared as recommended by the manufacturer about 2 hrs prior to use. Additionally, 1× reaction buffer (from 4× buffer stock #33-003), 1.4× stocks of PI3Kα, PI3Kβ, and PI3Kγ enzymes from BPS Bioscience (San Diego, Calif.) or Millipore (Billerica, Mass.) with di-C8-PIP2 lipid substrate (#33-005), and a 4×ATP solution (#A7699 Sigma/Aldrich; St. Louis, Mo.) were prepared in 1× reaction buffer. 15 μL of PI3K enzymes and lipid substrate mix were pre-incubated in a Corning (#3573) 384-well, black, non-treated microtiter plate (Corning, N.Y.) for 30 min at 25° C. with a 0.5 μL volume of 50% DMSO and serially diluted compounds prepared in 50% DMSO. Lipid kinase reactions were started with the addition of 5 μL of ATP solution, mixed for 15 sec on a rotary plate shaker and incubated for 30-60 minutes at 25° C. Next, reactions were stopped with a 5 μL addition of Stop solution immediately followed by a 5 μL volume of Detection Mix. Stopped reactions were equilibrated for 1 and 18 hrs at room temperature and read in a Synergy^4 plate reader from BioTek (Winooski, Vt.) at λex 330-80/λem 620-35 and λem 665-7.5. At the conclusion of each assay, the HTRF ratio from fluorescence emission values for each well was calculated and % Inhibition determined from averaged controls wells (+/−PI3K enzyme). % Inhibition values for each compound were then plotted against inhibitor concentration to estimate IC50 from log [Inhibitor]vs Response, Variable Slope model in GraphPad Prism from GraphPad Software (San Diego, Calif.).
[Reagent] used in optimized protocol:
(ATP KMapp for both enzymes was estimated to be 40-70 μM)

T1 sequence (P42336 whole entry): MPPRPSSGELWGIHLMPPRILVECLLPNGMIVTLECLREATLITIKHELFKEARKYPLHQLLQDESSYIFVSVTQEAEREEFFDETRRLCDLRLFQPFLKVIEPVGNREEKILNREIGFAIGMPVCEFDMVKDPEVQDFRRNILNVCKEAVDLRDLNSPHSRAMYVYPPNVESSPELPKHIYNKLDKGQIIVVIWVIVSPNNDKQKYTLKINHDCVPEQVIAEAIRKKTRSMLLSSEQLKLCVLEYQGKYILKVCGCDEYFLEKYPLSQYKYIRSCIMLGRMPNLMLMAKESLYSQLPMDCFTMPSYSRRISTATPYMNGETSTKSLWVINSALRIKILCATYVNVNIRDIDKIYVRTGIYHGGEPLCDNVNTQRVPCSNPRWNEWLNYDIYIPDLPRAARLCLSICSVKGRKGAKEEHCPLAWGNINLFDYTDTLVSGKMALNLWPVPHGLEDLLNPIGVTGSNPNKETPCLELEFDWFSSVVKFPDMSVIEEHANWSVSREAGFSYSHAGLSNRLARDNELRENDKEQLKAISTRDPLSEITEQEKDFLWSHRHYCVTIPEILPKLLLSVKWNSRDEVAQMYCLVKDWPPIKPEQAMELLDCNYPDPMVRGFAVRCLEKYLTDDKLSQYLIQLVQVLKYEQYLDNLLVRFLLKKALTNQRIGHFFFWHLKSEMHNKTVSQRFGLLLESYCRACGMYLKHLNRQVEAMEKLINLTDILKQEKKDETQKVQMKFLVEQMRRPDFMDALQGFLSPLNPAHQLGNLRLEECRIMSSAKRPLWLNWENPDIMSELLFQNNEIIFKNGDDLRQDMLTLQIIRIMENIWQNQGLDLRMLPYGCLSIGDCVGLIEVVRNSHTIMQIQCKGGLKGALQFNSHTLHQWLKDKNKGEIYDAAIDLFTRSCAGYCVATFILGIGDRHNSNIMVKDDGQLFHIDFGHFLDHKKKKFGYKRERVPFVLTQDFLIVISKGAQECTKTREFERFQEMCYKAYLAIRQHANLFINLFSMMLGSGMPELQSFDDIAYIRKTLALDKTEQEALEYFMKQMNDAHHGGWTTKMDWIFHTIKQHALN
T1 sequence (P27986 whole entry partner): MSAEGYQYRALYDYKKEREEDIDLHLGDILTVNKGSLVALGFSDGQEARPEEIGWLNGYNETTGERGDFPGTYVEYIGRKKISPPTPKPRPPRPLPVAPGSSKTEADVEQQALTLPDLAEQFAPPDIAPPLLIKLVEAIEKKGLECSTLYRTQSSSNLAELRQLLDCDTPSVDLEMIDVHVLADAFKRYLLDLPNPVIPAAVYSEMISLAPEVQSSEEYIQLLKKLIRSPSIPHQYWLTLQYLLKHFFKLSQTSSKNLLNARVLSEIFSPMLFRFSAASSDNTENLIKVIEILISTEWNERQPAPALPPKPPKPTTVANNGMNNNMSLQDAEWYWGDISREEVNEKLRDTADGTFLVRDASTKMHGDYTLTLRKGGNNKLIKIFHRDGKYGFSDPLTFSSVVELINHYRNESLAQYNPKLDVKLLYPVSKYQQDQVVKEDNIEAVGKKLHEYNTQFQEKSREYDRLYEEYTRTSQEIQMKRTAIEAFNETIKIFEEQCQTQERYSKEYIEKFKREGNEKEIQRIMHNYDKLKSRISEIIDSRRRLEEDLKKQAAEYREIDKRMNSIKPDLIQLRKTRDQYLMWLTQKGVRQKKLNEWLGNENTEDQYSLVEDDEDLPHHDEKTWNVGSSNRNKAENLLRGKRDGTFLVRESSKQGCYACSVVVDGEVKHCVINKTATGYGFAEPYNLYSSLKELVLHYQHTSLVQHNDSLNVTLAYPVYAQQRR

IC50	Structure (SMILES)
100 to 1000 nM	CC(C)/C(=C\C(=O)Nc1ccc(CC(=O)N2CCN(c3cc(-c4cnc(N)nc4)nc(N4CCOCC4)c3)CC2)cc1)C(F)(F)F [I-15]
10 to 100 nM	Nc1ncc(-c2cc(N3CCN(C(=O)Cc4ccc(NC(=O)/C=C(\C5CC5)C(F)(F)F)cc4)CC3)cc(N3CCOCC3)n2)cn1 [I-11]
100 to 1000 nM	CC(C)/C(=C\C(=O)Nc1ccc(CC(=O)N2CC=C(c3cc(-c4cnc(N)nc4)nc(N4CCOCC4)c3)CC2)cc1)C(F)(F)F [I-8]
100 to 1000 nM	CC(C)=CC(=O)CCC(=O)N1CCN(c2ccc(-c3cc(-c4cnc(N)nc4)nc(N4CCOCC4)c3)cc2)CC1 [I-1, 1-(4-(4-(2-(2-aminopyrimidin-5-yl)-6-morpholinopyridin-4-yl)phenyl)piperazin-1-yl)-6-methylhept-5-ene-1,4-dione]
100 to 1000 nM	C/C(=C\C(=O)Nc1ccc(CC(=O)N2CC=C(c3cc(-c4cnc(N)nc4)nc(N4CCOCC4)c3)CC2)cc1)C(F)(F)F [I-6]
10 to 100 nM	Nc1ncc(-c2cc(N3CCN(C(=O)Cc4ccc(NC(=O)/C=C(\c5ccccc5)C(F)(F)F)cc4)CC3)cc(N3CCOCC3)n2)cn1 [I-12]
10 to 100 nM	CC(C)/C(=C/C(=O)Nc1ccc(CC(=O)N2CCN(c3cc(-c4cnc(N)nc4)nc(N4CCOCC4)c3)CC2)cc1)C(F)(F)F [I-16]
10 to 100 nM	C=CC(=O)Nc1ccc2sc(N3CCN(c4cc(-c5cnc(N)nc5)nc(N5CCOCC5)c4)CC3)nc2c1 [I-17]
100 to 1000 nM	C/C(=C/C(=O)Nc1ccc(CC(=O)N2CCN(c3cc(-c4cnc(N)nc4)nc(N4CCOCC4)c3)CC2)cc1)C(F)(F)F [I-14]
10 to 100 nM	CC(C)=CC(=O)CCC(=O)Nc1ccc(C#Cc2cc(-c3cnc(N)nc3)nc(N3CCOCC3)c2)cc1 [I-2, N-(4-((2-(2-aminopyrimidin-5-yl)-6-morpholinopyridin-4-yl)ethynyl)phenyl)-6-methyl-4-oxohept-5-enamide]
10 to 100 nM	Nc1ncc(-c2cc(C3=CCN(C(=O)Cc4ccc(NC(=O)/C=C(\c5ccccc5)C(F)(F)F)cc4)CC3)cc(N3CCOCC3)n2)cn1 [I-5]
10 to 100 nM	CC(C)/C(=C/C(=O)Nc1ccc(CC(=O)N2CC=C(c3cc(-c4cnc(N)nc4)nc(N4CCOCC4)c3)CC2)cc1)C(F)(F)F [I-9]
100 to 1000 nM	C/C=C/C(=O)Nc1ccc(CC(=O)N2CC=C(c3cc(-c4cnc(N)nc4)nc(N4CCOCC4)c3)CC2)cc1 [I-3]
100 to 1000 nM	C/C(=C/C(=O)Nc1ccc(CC(=O)N2CC=C(c3cc(-c4cnc(N)nc4)nc(N4CCOCC4)c3)CC2)cc1)C(F)(F)F [I-7]
100 to 1000 nM	C/C=C/C(=O)Nc1ccc(CC(=O)N2CCN(c3cc(-c4cnc(N)nc4)nc(N4CCOCC4)c3)CC2)cc1 [I-10]
10 to 100 nM	Nc1ncc(-c2cc(C3=CCN(C(=O)Cc4ccc(NC(=O)/C=C(\C5CC5)C(F)(F)F)cc4)CC3)cc(N3CCOCC3)n2)cn1 [I-4]
100 to 1000 nM	C/C(=C\C(=O)Nc1ccc(CC(=O)N2CCN(c3cc(-c4cnc(N)nc4)nc(N4CCOCC4)c3)CC2)cc1)C(F)(F)F [I-13]

What follows are compounds tested against T2, PI3Kα (Homo sapiens, UniProt P42336) (assay: Mass spectrometry for PI3K (covalent modification of intact protein, MALDI)). Conditions: not given.
T2 construct: purchased Millipore 14-602
Assay type: binding
Experimental: Mass Spectrometry for PI3K
Intact PI3Kα (Millipore, 14-602) was incubated for 1 hr at a 10-fold excess of I-11 to protein. Aliquots (5 μl) of the samples were diluted with 15 μl of 0.2% TFA prior to micro C4 ZipTipping directly onto the MALDI target using Sinapinic acid as the desorption matrix (10 mg/mL in 0.1% TFA:Acetonitrile 50:50). […] Other compounds that modify PI3Kα >50% after 1 hr include I-1, I-2, I-12, I-17, and I-19.

T2 sequence (P42336 whole entry): as the sequence (P42336 whole entry) above
T2 sequence (P27986 whole entry partner): as the sequence (P27986 whole entry partner) above

covalent modification of PI3Kα by MS analysis (FIG. 1)	Structure (SMILES)
confirming covalent modification	Nc1ncc(-c2cc(N3CCN(C(=O)Cc4ccc(NC(=O)/C=C(\C5CC5)C(F)(F)F)cc4)CC3)cc(N3CCOCC3)n2)cn1 [I-11]

Same assay, conditions: intact PI3Kα incubated 1 hr, 10-fold excess of compound to protein

modification of PI3Kα	Structure (SMILES)
87%	Nc1ncc(-c2cc(N3CCN(C(=O)Cc4ccc(NC(=O)/C=C(\C5CC5)C(F)(F)F)cc4)CC3)cc(N3CCOCC3)n2)cn1 [I-11]

Same assay, conditions: intact PI3Kα incubated 1 hr, 10-fold excess of compound, MALDI centroid mass

mass shift of PI3K after incubation with compound	Structure (SMILES)
555 Da	Nc1ncc(-c2cc(N3CCN(C(=O)Cc4ccc(NC(=O)/C=C(\C5CC5)C(F)(F)F)cc4)CC3)cc(N3CCOCC3)n2)cn1 [I-11]
